Measured values published in PMC9588003, “TRPM8 contributes to sex dimorphism by promoting recovery of normal sensitivity in a mouse model of chronic migraine” (Nature Communications, 2022).

Target: human TRPM8 (hTRPM8) (Homo sapiens, UniProt Q7Z2W7)
Test: whole-cell patch clamp, hTRPM8-HEK293 cells; agonist dose-response
Format: cell-based

human TRPM8 (hTRPM8), sequence (Q7Z2W7 whole entry): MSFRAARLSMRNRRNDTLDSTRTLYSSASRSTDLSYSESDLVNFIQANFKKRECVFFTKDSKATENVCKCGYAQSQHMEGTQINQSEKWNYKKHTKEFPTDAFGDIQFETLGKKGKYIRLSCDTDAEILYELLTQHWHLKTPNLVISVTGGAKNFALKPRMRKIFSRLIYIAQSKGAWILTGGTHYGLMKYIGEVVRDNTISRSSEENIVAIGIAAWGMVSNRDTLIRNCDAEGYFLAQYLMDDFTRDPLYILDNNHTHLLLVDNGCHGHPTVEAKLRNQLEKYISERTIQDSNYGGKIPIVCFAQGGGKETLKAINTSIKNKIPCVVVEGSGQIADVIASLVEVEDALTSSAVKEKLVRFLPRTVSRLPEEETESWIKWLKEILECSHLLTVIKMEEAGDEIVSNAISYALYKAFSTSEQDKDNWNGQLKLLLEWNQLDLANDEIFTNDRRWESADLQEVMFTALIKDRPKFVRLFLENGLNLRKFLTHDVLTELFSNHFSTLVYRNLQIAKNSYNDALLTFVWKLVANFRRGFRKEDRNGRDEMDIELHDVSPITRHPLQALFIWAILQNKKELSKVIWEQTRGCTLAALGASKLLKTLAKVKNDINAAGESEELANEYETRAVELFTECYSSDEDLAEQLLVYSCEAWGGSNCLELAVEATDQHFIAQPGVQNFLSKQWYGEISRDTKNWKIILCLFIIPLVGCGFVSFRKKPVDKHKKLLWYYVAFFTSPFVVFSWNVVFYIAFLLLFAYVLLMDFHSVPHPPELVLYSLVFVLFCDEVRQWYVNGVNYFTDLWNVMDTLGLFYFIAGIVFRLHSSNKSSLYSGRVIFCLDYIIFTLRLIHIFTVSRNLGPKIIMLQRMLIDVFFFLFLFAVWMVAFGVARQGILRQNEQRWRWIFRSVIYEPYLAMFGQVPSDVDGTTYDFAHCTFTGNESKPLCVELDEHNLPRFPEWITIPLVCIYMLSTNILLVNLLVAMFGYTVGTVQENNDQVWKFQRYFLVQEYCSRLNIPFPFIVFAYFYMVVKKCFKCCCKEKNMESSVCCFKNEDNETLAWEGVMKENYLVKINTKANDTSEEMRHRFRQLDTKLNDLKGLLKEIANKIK

COc1ccc(NC(=O)[C@@H]2C[C@H](C)CC[C@H]2C(C)C)cc1 [WS12, (1R,2S,5R)−2-Isopropyl-N-(4-methoxyphenyl)−5-methylcyclohexanecarboxamide]
EC50: 0.5 µM
